Biological target: sGC α1/β1 heterodimer (Homo sapiens (Human), UniProt Q02108+Q02153)
Experiment: Cell-based sGC functional assay (cyclic GMP assay for sGC activator: CASA assay)
Conditions: CHO-K1/sGC cells; for Emax: CHO-K1, activity expressed as percentage of compound A (standard), read-out: % Activation; for EC50: inflection point, 4P fit, read-out: IP
Description: Cell-Based sGC Functional Assay (Cyclic GMP Assay for sGC Activator: CASA Assay)
Soluble guanylate cyclase (sGC) is a heme-containing enzyme that converts GTP to secondary messenger cGMP. Increases in cGMP levels affect several physiological processes including vasorelaxation through multiple downstream pathways. […] Heme-dependent activators (HDAs) preferentially activate sGC containing a ferrous heme group. To determine the effect of sGC activators on enzyme activity, the CASA assay was developed to monitor the generation of cGMP in a cell line that stably expresses the heterodimeric sGC protein.
A CHO-K1 cell line stably expressing the sGC α1/β1 heterodimer was generated using a standard transfection protocol. CHO-K1 cells were transfected with plasmids pIREShyghsGCα1 and pIRESneo-hsGCβ1 simultaneously using FUGENE reagent. Clones that stably express both subunits were selected with hygromycin and neomycin for ˜2 weeks. Clone #7 was chosen for the assay and was designated CHO-K1/sGC. CHO-K1/sGC cells were maintained in F-K12 medium containing 10% heat-inactivated Fetal Bovine Serum (FBS), 100 μg/mL penicillin/streptomycin, 0.5 mg/mL hygromycin and 0.25 mg/mL G418. The cells were then cryopreserved in LN2. On the day of the assay, the cells were thawed and resuspended in EBSS Assay Buffer (Sigma, E3024) supplemented with 5 mM MgCl2, 10 mM HEPES (4-(2-hydroxyethyl)piperazine-1-ethanesulfonic acid) and 0.05% BSA (bovine serum albumin) (EAB) and cell density was then adjusted to 2.25×10^5/mL with EAB. IBMX (3-isobutyl-1-methylxanthin, 0.5 mM) was added to inhibit degradation of cGMP. Compounds were diluted from DMSO stock solutions and added to the assay at a final DMSO concentration of 2.5%. Cells were pre-incubated in the presence and absence of 1 μM of Diethylenetriamine/nitric oxide adduct (DETA-NO; Sigma, 17018) for 30 min at 25° C. Compounds are subsequently added and incubated for 1 hr at 37° C. At the end of the incubation period, the reaction was terminated and the cells were lysed with the detection reagents from Cisbio Kits. The level of intracellular cGMP was determined using an HTRF-based assay kit (CisBio, 62GM2PEC), which detects the displacement of a fluorescence labeled cGMP from its specific antibody. The cGMP produced by test compounds was directly compared to the maximum cGMP production (this value was set to equal 100% activation.) of the published sGC-HDA compound A:
(Example 1 in WO 2010/065275, published Jun. 10, 2010). The test compounds' activity were then expressed as a percentage of compound A, the standard in every experiment. This percent activation was calculated either in the presence or absence of DETA-NO which was then plotted. Inflection points (IP) and maximum fold induction was derived using Abase analysis software for 4P fit.

Chain of sGC α1/β1 heterodimer (Q02108 whole entry): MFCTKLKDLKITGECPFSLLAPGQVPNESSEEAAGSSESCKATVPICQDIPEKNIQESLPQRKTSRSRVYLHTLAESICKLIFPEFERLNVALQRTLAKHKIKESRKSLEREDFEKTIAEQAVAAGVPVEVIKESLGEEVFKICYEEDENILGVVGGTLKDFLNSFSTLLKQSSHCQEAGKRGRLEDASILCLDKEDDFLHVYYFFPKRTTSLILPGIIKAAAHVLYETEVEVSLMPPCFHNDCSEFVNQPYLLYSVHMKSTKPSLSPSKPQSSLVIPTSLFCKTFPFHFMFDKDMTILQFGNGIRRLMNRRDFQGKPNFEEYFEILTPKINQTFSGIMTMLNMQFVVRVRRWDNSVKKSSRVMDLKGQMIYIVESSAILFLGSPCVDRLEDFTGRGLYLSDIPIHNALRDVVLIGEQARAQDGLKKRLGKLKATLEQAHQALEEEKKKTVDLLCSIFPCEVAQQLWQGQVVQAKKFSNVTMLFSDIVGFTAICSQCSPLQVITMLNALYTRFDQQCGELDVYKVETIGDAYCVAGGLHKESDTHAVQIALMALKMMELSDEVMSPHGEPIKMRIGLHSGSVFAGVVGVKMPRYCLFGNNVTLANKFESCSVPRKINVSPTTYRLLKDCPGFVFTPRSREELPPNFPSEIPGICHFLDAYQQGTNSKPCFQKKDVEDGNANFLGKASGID
Chain of sGC α1/β1 heterodimer (Q02153 whole entry): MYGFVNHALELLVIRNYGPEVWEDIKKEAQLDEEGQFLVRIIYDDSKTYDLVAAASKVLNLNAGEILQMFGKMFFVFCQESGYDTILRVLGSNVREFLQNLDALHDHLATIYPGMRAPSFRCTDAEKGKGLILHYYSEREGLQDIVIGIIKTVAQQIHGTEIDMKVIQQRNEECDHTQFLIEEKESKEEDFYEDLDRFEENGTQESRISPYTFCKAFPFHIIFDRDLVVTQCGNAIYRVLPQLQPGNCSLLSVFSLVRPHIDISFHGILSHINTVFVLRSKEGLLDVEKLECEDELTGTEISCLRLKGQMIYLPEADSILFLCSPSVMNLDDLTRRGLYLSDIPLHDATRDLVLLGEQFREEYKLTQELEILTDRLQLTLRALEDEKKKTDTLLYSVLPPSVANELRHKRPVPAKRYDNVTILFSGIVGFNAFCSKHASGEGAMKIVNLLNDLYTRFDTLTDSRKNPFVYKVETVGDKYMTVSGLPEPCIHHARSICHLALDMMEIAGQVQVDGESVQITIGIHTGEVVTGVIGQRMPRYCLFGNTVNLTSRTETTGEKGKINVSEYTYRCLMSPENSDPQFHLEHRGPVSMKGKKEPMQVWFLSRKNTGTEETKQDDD

| SMILES | Emax [%] | EC50 [nM] |
| --- | --- | --- |
| CC1(c2nc(CC(=O)O)cs2)C(=O)Nc2nc(-c3nn(CCC(F)(F)C(F)(F)F)c4ncccc34)nc(N)c21 (stereo not drawn) [Example 78A, (2-{4-Amino-5-methyl-6-oxo-2-[1-(3,3,4,4,4-pentafluorobutyl)-1H-pyrazolo[3,4-b]pyridin-3-yl]-6,7-dihydro-5H-pyrrolo[2,3-d]pyrimidin-5-yl}-1,3-thiazol-4-yl)acetic acid] | 93 |  |
| C[C@@H](NC(=O)CCc1ccc([C@]2(C)C(=O)Nc3nc(-c4nn(Cc5ccccc5F)c5ncccc45)nc(N)c32)cc1)C(=O)O [Example 102B, (5S)-(3-(4-{4-amino-2-[1-(2-fluorobenzyl)-1H-pyrazolo[3,4-b]pyridin-3-yl]-5-methyl-6-oxo-6,7-dihydro-5H-pyrrolo[2,3-d]pyrimidin-5-yl}phenyl)propanoyl)-D-alanine] | 100 | 573 |
| CC1(c2nc(CCCC(=O)O)cs2)C(=O)Nc2nc(-c3nn(Cc4ccccc4F)c4cc(Cl)ccc34)nc(N)c21 (stereo not drawn) [Example 49A, 4-(2-{4-amino-2-(6-chloro-1-(2-fluorobenzyl)-1H-indazol-3-yl)-5-methyl-6-oxo-6,7-dihydro-5H-pyrrolo[2,3-d]pyrimidin-5-yl}thiazol-4-yl)butanoic acid] | 91 | 119 |
| CC1(c2nc(CCC(=O)O)co2)C(=O)Nc2nc(-c3nn(Cc4ccccc4F)c4ccccc34)nc(N)c21 (stereo not drawn) [Example 54A, 3-(2-{4-amino-2-[1-(2-fluorobenzyl)-1H-indazol-3-yl]-5-methyl-6-oxo-6,7-dihydro-5H-pyrrolo[2,3-d]pyrimidin-5-yl}oxazol-4-yl)propanoic acid] | 106 | 490 |
| CC1(c2cn(CCC(=O)O)nn2)C(=O)Nc2nc(-c3nn(CCC(F)(F)C(F)(F)F)c4cc(Cl)ccc34)nc(N)c21 (stereo not drawn) [Example 29B, 3-(4-{4-amino-2-[6-chloro-1-(3,3,4,4,4-pentafluorobutyl)-1H-indazol-3-yl]-5-methyl-6-oxo-6,7-dihydro-5H-pyrrolo[2,3-d]pyrimidin-5-yl}-1H-1,2,3-triazol-1-yl)propanoic acid] | 82 |  |
| CC1(c2nn(C(C)(C)C(=O)O)c(=O)o2)C(=O)Nc2nc(-c3nn(CCC(F)(F)C(F)(F)F)c4cc(Cl)ccc34)nc(N)c21 (single isomer, unassigned) [Example 99B, 2-[5-{4-Amino-2-[6-chloro-1-(3,3,4,4,4-pentafluorobutyl)-1H-indazol-3-yl]-5-methyl-6-oxo-6,7-dihydro-5H-pyrrolo[2,3-d]pyrimidin-5-yl}-2-oxo-1,3,4-oxadiazol-3(2H)-yl]-2-methylpropanoic acid] |  | 186 |
| CC(C)(Cc1coc(C2(C)C(=O)Nc3nc(-c4nn(Cc5ccccc5F)c5ccc(Cl)cc45)nc(N)c32)n1)C(=O)O (stereo not drawn) [Example 74A, 3-(2-{4-amino-2-[5-chloro-1-(2-fluorobenzyl)-1H-indazol-3-yl]-5-methyl-6-oxo-6,7-dihydro-5H-pyrrolo[2,3-d]pyrimidin-5-yl}oxazol-4-yl)-2,2-dimethylpropanoic acid] | 94 | 62 |
| CC(C)(CCc1csc(C2(C)C(=O)Nc3nc(-c4nn(Cc5ccccc5F)c5cc(Cl)ccc45)nc(N)c32)n1)C(=O)O (stereo not drawn) [Example 166A, 4-(2-{4-amino-2-[6-chloro-1-(2-fluorobenzyl)-1H-indazol-3-yl]-5-methyl-6-oxo-6,7-dihydro-5H-pyrrolo[2,3-d]pyrimidin-5-yl}-1,3-thiazol-4-yl)-2,2-dimethyl-butanoic acid] | 86.4 |  |
| Cc1ccc2c(-c3nc(N)c4c(n3)NC(=O)[C@@]4(C)c3nc(CC(C)(C)C(=O)O)cs3)nn(Cc3ccc(C)c(F)c3F)c2n1 [Example 75A, (S)-3-(2-{4-amino-2-[1-(2,3-difluoro-4-methylbenzyl)-6-methyl-1H-pyrazolo[3,4-b]pyridin-3-yl]-5-methyl-6-oxo-6,7-dihydro-5H-pyrrolo[2,3-d]pyrimidin-5-yl}thiazol-4-yl)-2,2-dimethylpropanoic acid] | 155 | 238 |
| CC1(c2cccc(CCC(=O)O)c2)C(=O)Nc2nc(-c3nn(Cc4ccccc4F)c4ncc(F)cc34)nc(N)c21 (stereo not drawn) [Example 24A, 3-(3-{4-amino-2-[5-fluoro-1-(2-fluorobenzyl)-1H-pyrazolo[3,4-b]pyridin-3-yl]-5-methyl-6-oxo-6,7-dihydro-5H-pyrrolo[2,3-d]pyrimidin-5-yl}phenyl)propanoic acid] | 106 | 210 |
| C[C@@]1(c2ccc(CCC(=O)O)cc2)C(=O)Nc2nc(-c3nn(Cc4ccccc4F)c4ccc(F)cc34)nc(N)c21 [Example 71B, (S)-3-(4-{4-amino-2-[5-fluoro-1-(2-fluorobenzyl)-1H-indazol-3-yl]-5-methyl-6-oxo-6,7-dihydro-5H-pyrrolo[2,3-d]pyrimidin-5-yl}phenyl)propanoic acid] | 78 | 73 |

The next lines start with the values.

| Emax [%] | EC50 [nM] | SMILES |
| --- | --- | --- |
| 98 | 407 | CC1(c2nc(CCC(=O)O)co2)C(=O)Nc2nc(-c3nn(Cc4ccccc4F)c4cc(Cl)ccc34)nc(N)c21 (stereo not drawn) [Example 50A, 3-(2-{4-amino-2-(6-chloro-1-(2-fluorobenzyl)-1H-indazol-3-yl)-5-methyl-6-oxo-6,7-dihydro-5H-pyrrolo[2,3-d]pyrimidin-5-yl}oxazol-4-yl)propanoic acid] |
| 108 | 178 | Cc1sc(C2(C)C(=O)Nc3nc(-c4nn(CCC(F)(F)C(F)(F)F)c5cc(Cl)ccc45)nc(N)c32)nc1-c1ccc(C(=O)O)cc1 (stereo not drawn) [Example 94B, 4-(2-{4-amino-2-[6-chloro-1-(3,3,4,4,4-pentafluorobutyl)-1H-indazol-3-yl]-5-methyl-6-oxo-6,7-dihydro-5H-pyrrolo[2,3-d]pyrimidin-5-yl}-5-methyl-1,3-thiazol-4-yl)benzoic acid] |
| 106 | 1370 | CC[C@@H](NC(=O)CCc1ccc([C@]2(C)C(=O)Nc3nc(-c4nn(Cc5ccccc5F)c5ncccc45)nc(N)c32)cc1)C(=O)O [Example 104B, (5S,2R)-2-(3-(4-{4-amino-2-[1-(2-fluorobenzyl)-1H-pyrazolo[3,4-b]pyridin-3-yl]-5-methyl-6-oxo-6,7-dihydro-5H-pyrrolo[2,3-d]pyrimidin-5-yl}phenyl)propanamido)butanoic acid] |
| 135 |  | Cc1cccc(Cn2nc(-c3nc(N)c4c(n3)NC(=O)C4(C)c3nc(CC(C)(C)C(=O)O)co3)c3ccc(F)cc32)c1F (stereo not drawn) [Example 212A, 3-(2-{4-amino-2-[6-fluoro-1-(2-fluoro-3-methyl-benzyl)-1H-indazol-3-yl]-5-methyl-6-oxo-6,7-dihydro-5H-pyrrolo[2,3-d]pyrimidin-5-yl}-1,3-oxazol-4-yl)-2,2-dimethyl-propanoic acid] |
| 129 | 1360 | CC(C)(Cc1ccc(C2(C)C(=O)Nc3nc(-c4nn(CCC(F)(F)C(F)(F)F)c5ncccc45)nc(N)c32)nc1)C(=O)O (stereo not drawn) [Example 8B, 3-(6-{4-amino-5-methyl-6-oxo-2-[1-(3,3,4,4,4-pentafluoro-butyl)-1H-pyrazolo[3,4-b]pyridin-3-yl]-6,7-dihydro-5H-pyrrolo[2,3-d]pyrimidin-5-yl}pyridin-3-yl)-2,2-dimethyl-propanoic acid] |
| 136 | 1100 | C[C@@]1(c2ccc(CCC(=O)O)cc2)C(=O)Nc2nc(-c3nn(Cc4ccc(F)cc4)c4cc(Cl)ccc34)nc(N)c21 [Example 65B, (S)-3-(4-{4-amino-2-[6-chloro-1-(4-fluorobenzyl)-1H-indazol-3-yl]-5-methyl-6-oxo-6,7-dihydro-5H-pyrrolo[2,3-d]pyrimidin-5-yl}phenyl)propanoic acid] |
| 116 | 134 | CC(C)(Cc1coc(C2(C)C(=O)Nc3nc(-c4nn(Cc5ccccc5F)c5ccccc45)nc(N)c32)n1)C(=O)O (stereo not drawn) [Example 56A, 3-(2-{4-amino-2-[1-(2-fluorobenzyl)-1H-indazol-3-yl]-5-methyl-6-oxo-6,7-dihydro-5H-pyrrolo[2,3-d]pyrimidin-5-yl}oxazol-4-yl)-2,2-dimethylpropanoic acid] |
| 113 | 397 | C[C@H](O)[C@@H](NC(=O)CCc1ccc([C@]2(C)C(=O)Nc3nc(-c4nn(Cc5ccccc5F)c5ncccc45)nc(N)c32)cc1)C(=O)O [Example 107B, (5S)-(3-(4-{4-amino-2-[1-(2-fluorobenzyl)-1H-pyrazolo[3,4-b]pyridin-3-yl]-5-methyl-6-oxo-6,7-dihydro-5H-pyrrolo[2,3-d]pyrimidin-5-yl}phenyl)propanoyl)-D-threonine] |
